Experimental data taken from US20140187595A1 (INSERM (Institut National de la Sante et de la Recherche …, priority 2010, published 2014).

Experiments:
[1] = system: INSR splicing (±exon 11) in DM1 MPCs; experiment: INSR splicing (±exon 11, INSR-A/INSR-B ratio) by quantitative PCR in DM1 MPCs; type: cell-based, human
[2] = system: cTNT splicing (±exon 5), pRG6 minigene; experiment: cTNT splicing (±exon 5) by RT-PCR in MPCs transfected with pRG6 minigene; type: cell-based, human; settings: 25 mM, DM1 MPCs
Source text: FIG. 1E cTNT splicing (±exon 5) in WT and DM1 MPCs cotransfected with the indicated expression vectors and the pSG (d) or pRG6 (e) minigenes respectively (means ±s.d., n=3).
TNNT2 (cTNT) was chosen because, opposite to INSR, abnormal splicing in DM1 leads to the inclusion of an exon (exon 5)^4. As TNNT2 is not expressed in MPCs, cells were transfected with the RG6 minigene^13 based upon the chicken orthologue.

WT MPCs = experiment: INSR and cTNT splicing in WT cells; type: cell-based, human
DM1 myoblasts = experiment: Splicing in immortalized myoblasts from DM1 patients; type: cell-based, human
Source text: FIGS. 4A and 4B. Effects of AMPK activators on INSR splicing defect in immortalized myoblasts or freshly isolated peripheral blood lymphocytes (PBLs) from DM1 patients.

[3] = Toxicity in mouse at end of metformin treatment; type: in vivo, C57BL/6NCr1 mouse; settings: 200 and 600 mg/Kg/day by gavage
Source text: Enhancement of Ank2 exon 21 and Capzb exon 8 inclusion, INSR exon 11 and Nfix exon […] exclusion or Alp exons 5a and 5b alternative splicing associated to a rescuing effect of DM1 missplicings in mouse skeletal muscle were observed.

[4] = system: pre-mRNA splicing (Ank2, Capzb, INSR, Nfix, Alp); settings: higher dose (600 mg/Kg/day), mouse heart
DM1 cells = experiment: Toxicity on repeated daily treatment of DM1 cells; settings: 10 mM repeated daily for up to 10 days
[5] = system: splicing defects associated with myotonic dystrophy; settings: Warf et al. 2009; cited from earlier work

For `CN(C)C(=N)N=C(N)N` [metformin], the “corrective effect on INSR splicing after repeated treatment” value ([1]; 10 mM daily for up to 10 days) was “maintained corrective effect”, the “INSR splicing (±exon 11) rescue” value ([1]; 24 h-treatment, increasing concentrations) was “partially rescues” and the “exogenous cTNT splicing (±exon 5)” value [2] was “decreased inclusion of exon 5”. The “exogenous cTNT splicing (±exon 5)” value ([2]; listed as Metformin) was “restores”, the “"MBNL1-related" splicing of the two genes (INSR, cTNT)” value (WT MPCs) was “efficient in facilitating” and the “INSR transcript exon 11” value (DM1 myoblasts) was “exon 11 inclusion”. For the same molecule, the “SERCA1 transcript exon 22” value (DM1 myoblasts) was “exon 22 inclusion”, the “ZASP transcript exon 10” value (DM1 myoblasts) was “exon 10 skipping” and the “endogenous human cTNT transcript exon 5” value (DM1 myoblasts) was “exon 5 skipping”. The “toxicity at the end of the treatment period” value [3] was “No sign of toxicity”, the “INSR exon 11 exclusion in the heart” value [4] was “enhancement of INSR exon 11 exclusion was also observed” and the toxicity (DM1 cells) was “no observed toxicity”.

For `N=C(N)c1ccc(OCCCCCOc2ccc(C(=N)N)cc2)cc1` [Pentamidine, pentamidine], the “splicing defects associated with myotonic dystrophy” value [5] is given as “reverses the splicing defects”.
